Measured values from patent US6410792B1, “Amide derivatives and methods for using the same as selective neuropeptide Y receptor antagonists” (Bayer Corporation, priority 1997, dated 2002).
Read-outs that look alike come from different tables or passages of the source.

How the values were obtained:
Rat NPY5 receptor [1] = target: T1, Rat NPY5 receptor (Rattus norvegicus, UniProt Q63634); assay: Rat NPY5 cyclase assay (in vitro functional assay, forskolin-stimulated adenylate cyclase, cAMP); type: cell-based; settings: 10 μM; percentage of forskolin-stimulated adenylate cyclase
T1 sequence (Q63634 1-445): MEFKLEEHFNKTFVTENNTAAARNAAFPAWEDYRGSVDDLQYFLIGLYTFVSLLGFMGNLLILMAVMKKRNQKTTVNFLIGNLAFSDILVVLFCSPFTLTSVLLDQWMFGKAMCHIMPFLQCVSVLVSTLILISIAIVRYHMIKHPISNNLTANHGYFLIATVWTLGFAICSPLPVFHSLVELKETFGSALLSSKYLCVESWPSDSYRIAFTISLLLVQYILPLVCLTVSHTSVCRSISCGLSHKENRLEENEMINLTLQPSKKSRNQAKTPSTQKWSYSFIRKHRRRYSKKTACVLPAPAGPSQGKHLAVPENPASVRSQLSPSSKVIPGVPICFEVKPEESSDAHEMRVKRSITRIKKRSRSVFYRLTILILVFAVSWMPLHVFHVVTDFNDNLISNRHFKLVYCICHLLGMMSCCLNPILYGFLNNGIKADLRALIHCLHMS
Experimental: D. Rat NYP5 Cyclase Assay (In Vitro Functional Assay)
Cells stably expressing the rat NPY5 receptor are resuspended in serum-free DMEM containing 10 mM HEPES (pH 7.4) and 1 mM isobutylmethylxanthine (IBMX). […] forskolin and drug dilution are then added to the cells. After a 20 minute incubation of the samples at 37° C, the assay is stopped by placing the samples in boiling water for 3 minutes. The cAMP produced in each sample is quantitated with a radioimmunoassay kit (NEN DuPont). Data are expressed as a percentage of forskolin-stimulated adenylate cyclase.

Human NPY1 receptor = target: T2, Human NPY1 receptor (Homo sapiens, UniProt P25929); assay: Human NPY1 receptor binding assay ([125I]PYY, SK-N-MC cells); settings: [125I]PYY, SK-N-MC cells; read-out: hNPYI IC50
T2 construct: host or cells: SK-N-MC cells
T2 sequence (P25929 1-384): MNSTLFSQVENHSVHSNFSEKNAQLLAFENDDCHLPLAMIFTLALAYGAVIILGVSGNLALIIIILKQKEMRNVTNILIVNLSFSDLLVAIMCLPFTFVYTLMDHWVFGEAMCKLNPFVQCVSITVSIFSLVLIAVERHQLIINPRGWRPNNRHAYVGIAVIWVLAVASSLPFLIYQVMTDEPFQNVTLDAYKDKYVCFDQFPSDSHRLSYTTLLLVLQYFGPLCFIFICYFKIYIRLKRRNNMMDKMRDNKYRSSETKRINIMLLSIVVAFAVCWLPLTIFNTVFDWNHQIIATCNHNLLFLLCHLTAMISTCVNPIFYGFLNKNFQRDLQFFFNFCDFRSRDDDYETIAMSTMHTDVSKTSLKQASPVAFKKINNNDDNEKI
Outline: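 Confluent SK-N-MC cells preincubated 30 min at room temperature in serum-free DMEM/25 mM HEPES pH 7.3 with BSA, bacitracin and PMSF, then incubated 3 h at room temperature with compound and ~50 pM [125I]PYY. Nonspecific binding defined with 1 μM NPY; bound radioactivity counted after Triton X-100 lysis.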

Y2 receptor = target: T3, Y2 receptor (Homo sapiens, UniProt P49146); assay: Y2 receptor binding assay ([125I]PYY, membrane protein); settings: [125I]PYY, membrane protein; read-out: hNPY2 IC50
T3 sequence (P49146 1-381): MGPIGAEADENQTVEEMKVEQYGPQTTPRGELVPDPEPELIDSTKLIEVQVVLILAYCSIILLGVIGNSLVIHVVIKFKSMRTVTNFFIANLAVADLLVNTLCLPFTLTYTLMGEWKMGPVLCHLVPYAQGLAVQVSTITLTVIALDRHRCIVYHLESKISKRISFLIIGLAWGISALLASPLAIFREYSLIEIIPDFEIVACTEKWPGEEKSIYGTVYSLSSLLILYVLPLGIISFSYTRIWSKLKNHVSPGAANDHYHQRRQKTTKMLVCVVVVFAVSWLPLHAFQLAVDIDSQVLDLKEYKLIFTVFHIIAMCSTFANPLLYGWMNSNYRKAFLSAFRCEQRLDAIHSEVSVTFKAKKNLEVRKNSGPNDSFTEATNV
Outline: (§1)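 Filtration binding with membrane protein and drug dilution, 2 h at room temperature with mixing, radioactivity counted by gamma or scintillation. Y2: 25 pM [125I]PYY in Krebs-Ringer bicarbonate pH 7.4 with 0.01% BSA, nonspecific by 1 μM NPY. Y4/PP1: 50 pM [125I]hPP in HEPES-buffered saline pH 7.4 with protease inhibitors and 0.3% BSA, nonspecific by 1 μM hPP.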

human Y4/PP1 receptor = human Y4/PP1 receptor (Homo sapiens, UniProt P50391); assay: Human Y4/PP1 receptor binding assay ([125I]human PP, membrane protein); settings: [125I]human PP, membrane protein; read-out: hNPY4 IC50
Outline: as §1

Human NPY5 receptor = target: T4, Human NPY5 receptor (Homo sapiens, UniProt Q15761); assay: Human NPY5 receptor binding assay ([125I]PYY, membrane protein)
T4 sequence (Q15761 1-445): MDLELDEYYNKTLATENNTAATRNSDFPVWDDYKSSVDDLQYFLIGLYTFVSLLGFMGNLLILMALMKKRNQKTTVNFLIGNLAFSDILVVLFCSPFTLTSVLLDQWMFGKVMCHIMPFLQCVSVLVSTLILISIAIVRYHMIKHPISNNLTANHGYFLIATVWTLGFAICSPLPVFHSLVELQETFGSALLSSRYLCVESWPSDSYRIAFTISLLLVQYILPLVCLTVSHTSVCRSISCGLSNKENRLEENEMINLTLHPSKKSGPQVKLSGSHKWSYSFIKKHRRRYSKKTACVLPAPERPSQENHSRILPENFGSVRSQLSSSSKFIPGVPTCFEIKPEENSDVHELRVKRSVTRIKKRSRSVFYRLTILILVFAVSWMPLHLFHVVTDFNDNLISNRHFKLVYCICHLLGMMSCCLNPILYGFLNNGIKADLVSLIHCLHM
Outline: (§2)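 Membrane protein incubated 2 h at room temperature with 75-100 pM porcine [125I]PYY and compound in pH 7.4 Tris buffer with salts, 0.1% BSA and bacitracin. Nonspecific binding with 1 μM PYY. Filtration, then gamma or scintillation counting.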

Rat NPY5 receptor [2] = target: T1, Rat NPY5 receptor; assay: Rat NPY5 receptor binding assay ([125I]PYY, membrane protein)
Outline: as §2

[3] = [125I]PYY, read-out: hNPY5 IC50
[4] = [125I]PYY, read-out: rNPY5 IC50

Sequence of human Y4/PP1 receptor (P50391 whole entry): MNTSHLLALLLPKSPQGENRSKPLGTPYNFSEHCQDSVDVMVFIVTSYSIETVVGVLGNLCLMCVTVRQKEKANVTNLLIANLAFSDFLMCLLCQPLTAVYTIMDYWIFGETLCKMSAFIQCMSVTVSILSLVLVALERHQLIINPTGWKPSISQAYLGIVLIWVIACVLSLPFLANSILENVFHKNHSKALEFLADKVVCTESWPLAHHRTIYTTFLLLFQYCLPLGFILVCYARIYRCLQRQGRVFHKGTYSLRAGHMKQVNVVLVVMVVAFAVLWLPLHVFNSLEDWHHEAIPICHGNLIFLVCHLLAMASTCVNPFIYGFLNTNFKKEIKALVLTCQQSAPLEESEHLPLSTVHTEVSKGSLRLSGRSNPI

Row | Compound | rNPY5 % FSAC (10 μM) (Rat NPY5 receptor [1]) [%] | IC50 (Human NPY1 receptor) [µM] | IC50 (Y2 receptor) [µM] | IC50 (human Y4/PP1 receptor) [µM] | IC50 (Human NPY5 receptor; [3]) [µM] | IC50 (Rat NPY5 receptor [2]; [4]) [µM] | melting point [°C] | IC50 (Human NPY5 receptor; hNPY5 IC50, [125I]PYY) [µM] | IC50 (Rat NPY5 receptor [2]; rNPY5 IC50, [125I]PYY) [µM]
1 | Cl.O=C(CN1CCC(n2c(=O)[nH]c3ccccc32)CC1)Nc1ccc(C(=O)C(=O)c2ccccc2)cc1 [Compound 265] | 90 |  |  |  |  |  |  |  | 
2 | Cl.O=C(CN1CCC(n2c(=O)[nH]c3ccccc32)CC1)Nc1ccc2oc3ccccc3c2c1 [Compound 310, N-Dibenzofuran-2-yl-2-[4-(2-oxo-2,3-dihydro-benzoimidazol-1-yl)-piperidin-1-yl]-acetamide; hydrochloride] |  | > 5 | > 5 | > 5 | 0.034 | 0.034 | 186 |  | 
3 | CC(C(=O)Nc1ccc(C2CCCCC2)cc1)N1CCC(n2c(=O)[nH]c3ccccc32)CC1 (stereo not shown) [Compound 278, N-(4-Cyclohexyl-phenyl)-2-[4-(2-oxo-2,3-dihydro-benzoimidazol-1-yl)-piperidin-1-yl]-propionamide] |  | > 5 | > 5 | > 5 | 0.028 | 0.012 | 148 to 150 |  | 
4 | O=C(Nc1ccc(-c2ccccc2)cc1)C(c1ccccc1)N1CCC(n2c(=O)[nH]c3ccccc32)CC1 (stereo not shown) [Compound 312, N-Biphenyl-4-yl-2-[4-(2-oxo-2,3-dihydro-benzoimidazol-1-yl)-piperidin-1-yl]-2-phenyl-acetamide] |  | > 5 | > 5 | > 5 |  |  | 207 to 210 | 0.032 | 0.024
5 | O=C(CN1CCCCC1)Nc1ccc(-c2ccccc2)cc1 [Compound 271, N-Biphenyl-4-yl-2-piperidin-1-yl-acetamide] |  | > 5 | > 5 | > 5 | 5.4 | 2.9 | 102 to 103 |  | 
6 | O=C(CN1CCN(c2ccccc2)CC1)Nc1ccc(C2CCCCC2)cc1 [Compound 272, N-(4-Cyclohexyl-phenyl)-2-(4-phenyl-piperazin-1-yl)-acetamide] |  | > 5 | > 5 | > 5 | 0.117 | 0.21 | 195 to 196 |  | 
7 | O=C(CN1CCC(n2c(=O)[nH]c3ccccc32)CC1)Nc1ccc2c(c1)-c1ccccc1C2=O [Compound 266, 2-[4-(2-Oxo-2,3-dihydro-benzoimidazol-1-yl)-piperidin-1-yl]-N-(9-oxo-9H-fluoren-3-yl)-acetamide] |  | > 5 | > 5 | > 5 | 0.0005 | 0.0004 | 176 |  | 
8 | CN(C(=O)CN1CCC(n2c(=O)[nH]c3ccccc32)CC1)c1ccc(C2CCCCC2)cc1 [Compound 270, N-(4-Cyclohexyl-phenyl)-N-methyl-2-[4-(2-oxo-2,3-dihydro-benzoimidazol-1-yl)-piperidin-1-yl]-acetamide] |  | > 5 | > 5 | > 5 | > 10 | > 10 | 250 to 253 |  | 
9 | O=C(CN1CCCCC1)Nc1ccc(C2CCCCC2)cc1 [Compound 252, N-(4-Cyclohexyl-phenyl)-2-(piperidine)-acetamide] |  | > 5 | > 5 | > 5 | 0.94 | 0.63 | 118 to 119 |  | 
10 | Cl.O=C(CN1CCC(n2c(=O)[nH]c3ccccc32)CC1)Nc1ccc2c(c1)C(=O)c1ccccc1-2 [Compound 306, 2-[4-(2-Oxo-2,3-dihydro-benzoimidazol-1-yl)-piperidin-1-yl]-N-(9-oxo-9H-fluoren-2-yl)-acetamide; hydrochloride] |  | > 5 | > 5 | > 5 | 0.044 | 0.035 | 204 |  | 
11 | O=C(CN1CCC(n2c(=O)[nH]c3ccccc32)CC1)Nc1cccc(C(=O)c2ccccc2)c1 [Compound 268, N-(3-Benzoyl-phenyl)-2-[4-(2-oxo-2,3-dihydro-benzoimidazol-1-yl)-piperidin-1-yl]-acetamide] |  | > 5 | > 5 | > 5 | 0.13 | 0.12 | 134 to 135 |  | 
12 | O=C(CN1CCC(n2c(=O)[nH]c3ccccc32)CC1)Nc1cccc2c1-c1ccccc1C2=O [Compound 308, 2-[4-(2-Oxo-2,3-dihydro-benzoimidazol-1-yl)-piperidin-1-yl]-N-(9-oxo-9H-fluoren-4-yl)-acetamide] |  | > 5 | > 5 | > 5 | 0.36 | 0.3 | 205 |  | 
13 | CC(C(=O)Nc1ccc(C(C)(C)C)cc1)N1CCC(n2c(=O)[nH]c3ccccc32)CC1 (stereo not shown) [Compound 279] |  | > 5 | > 5 | > 5 | 0.13 | 0.068 | 144 to 148 |  | 
